Test results published in publication PMC12136037, “Type II kinase inhibitors that target Parkinson’s disease–associated LRRK2” (Science Advances, 2025).

Key:
Assay in all cases: DSF 100 kinase selectivity screen;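 further: compound tested at 20 µM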
Format in all cases: binding
[1] = biological target: T1, ~100 representative kinases (Homo sapiens, UniProt Q99986); details: Protein VRK1; DSF; average of three replicates
T1 construct: Recombinant protein kinase domains with a concentration of 2 μM
T1 sequence (Q99986 1-396): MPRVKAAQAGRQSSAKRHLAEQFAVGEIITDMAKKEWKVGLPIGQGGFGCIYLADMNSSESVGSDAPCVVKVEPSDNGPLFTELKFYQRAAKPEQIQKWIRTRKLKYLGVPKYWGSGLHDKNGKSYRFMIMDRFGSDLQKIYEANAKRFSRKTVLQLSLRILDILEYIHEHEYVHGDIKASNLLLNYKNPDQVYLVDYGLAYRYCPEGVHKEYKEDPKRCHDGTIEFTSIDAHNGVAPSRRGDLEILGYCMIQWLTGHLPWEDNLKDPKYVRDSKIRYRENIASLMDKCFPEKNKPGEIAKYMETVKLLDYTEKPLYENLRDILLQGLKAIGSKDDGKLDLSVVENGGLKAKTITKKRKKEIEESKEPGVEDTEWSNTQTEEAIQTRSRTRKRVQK
Procedure, shortened: (§1)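 Each kinase domain, at 2 μM, is mixed with 20 μM test compound and SYPRO Orange in Hepes (20 mM, pH 7.5) with 500 mM NaCl. Temperature is then raised at 3°C/min and fluorescence-monitored unfolding yields the melting temperature change, ΔTm in degrees Celsius.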

[2] = biological target: T2, ~100 representative kinases (Homo sapiens, UniProt Q9UEE5); details: Protein STK17A; DSF; average of three replicates
T2 construct: Recombinant protein kinase domains with a concentration of 2 μM
T2 sequence (Q9UEE5 1-414): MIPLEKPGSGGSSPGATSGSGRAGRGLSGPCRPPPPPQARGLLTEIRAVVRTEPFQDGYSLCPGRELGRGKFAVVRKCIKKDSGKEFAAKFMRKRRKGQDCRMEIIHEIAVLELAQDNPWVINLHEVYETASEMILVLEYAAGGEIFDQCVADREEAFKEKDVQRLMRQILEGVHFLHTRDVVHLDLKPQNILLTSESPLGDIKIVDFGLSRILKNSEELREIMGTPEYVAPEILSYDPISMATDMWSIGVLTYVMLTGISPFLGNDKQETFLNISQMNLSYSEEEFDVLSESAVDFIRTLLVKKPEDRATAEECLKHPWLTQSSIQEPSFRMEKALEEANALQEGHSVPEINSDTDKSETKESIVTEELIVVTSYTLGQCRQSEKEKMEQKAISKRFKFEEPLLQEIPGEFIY
Procedure, shortened: as §1

[3] = biological target: T3, ~100 representative kinases (Homo sapiens, UniProt P27448); details: protein MARK3; average of three replicates
T3 construct: Recombinant protein kinase domains with a concentration of 2 μM
T3 sequence (P27448 whole entry, the tested form may be a part): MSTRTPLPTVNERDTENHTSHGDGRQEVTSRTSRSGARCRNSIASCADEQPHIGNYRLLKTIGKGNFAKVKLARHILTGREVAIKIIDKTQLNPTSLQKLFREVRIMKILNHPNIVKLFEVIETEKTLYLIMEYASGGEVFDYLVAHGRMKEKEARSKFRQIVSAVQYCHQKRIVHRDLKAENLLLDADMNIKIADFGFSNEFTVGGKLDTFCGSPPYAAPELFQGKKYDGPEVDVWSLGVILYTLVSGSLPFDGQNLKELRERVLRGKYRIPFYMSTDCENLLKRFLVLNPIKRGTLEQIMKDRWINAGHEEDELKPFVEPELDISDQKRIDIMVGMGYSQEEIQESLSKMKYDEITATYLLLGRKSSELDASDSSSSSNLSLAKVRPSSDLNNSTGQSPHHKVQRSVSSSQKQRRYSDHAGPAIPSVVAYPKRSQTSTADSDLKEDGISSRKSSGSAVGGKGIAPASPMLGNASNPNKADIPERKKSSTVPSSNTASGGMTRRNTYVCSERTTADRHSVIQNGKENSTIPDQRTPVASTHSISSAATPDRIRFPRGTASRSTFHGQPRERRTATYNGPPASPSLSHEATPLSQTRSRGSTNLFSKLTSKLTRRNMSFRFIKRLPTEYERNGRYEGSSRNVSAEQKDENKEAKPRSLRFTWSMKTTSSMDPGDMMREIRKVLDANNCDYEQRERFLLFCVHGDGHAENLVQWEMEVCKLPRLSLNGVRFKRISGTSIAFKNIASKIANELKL
Procedure, shortened: as §1

[4] = biological target: T4, ~100 representative kinases (Homo sapiens, UniProt O14936); details: Protein CASK; average of three replicates
T4 construct: Recombinant protein kinase domains with a concentration of 2 μM
T4 sequence (O14936 1-926): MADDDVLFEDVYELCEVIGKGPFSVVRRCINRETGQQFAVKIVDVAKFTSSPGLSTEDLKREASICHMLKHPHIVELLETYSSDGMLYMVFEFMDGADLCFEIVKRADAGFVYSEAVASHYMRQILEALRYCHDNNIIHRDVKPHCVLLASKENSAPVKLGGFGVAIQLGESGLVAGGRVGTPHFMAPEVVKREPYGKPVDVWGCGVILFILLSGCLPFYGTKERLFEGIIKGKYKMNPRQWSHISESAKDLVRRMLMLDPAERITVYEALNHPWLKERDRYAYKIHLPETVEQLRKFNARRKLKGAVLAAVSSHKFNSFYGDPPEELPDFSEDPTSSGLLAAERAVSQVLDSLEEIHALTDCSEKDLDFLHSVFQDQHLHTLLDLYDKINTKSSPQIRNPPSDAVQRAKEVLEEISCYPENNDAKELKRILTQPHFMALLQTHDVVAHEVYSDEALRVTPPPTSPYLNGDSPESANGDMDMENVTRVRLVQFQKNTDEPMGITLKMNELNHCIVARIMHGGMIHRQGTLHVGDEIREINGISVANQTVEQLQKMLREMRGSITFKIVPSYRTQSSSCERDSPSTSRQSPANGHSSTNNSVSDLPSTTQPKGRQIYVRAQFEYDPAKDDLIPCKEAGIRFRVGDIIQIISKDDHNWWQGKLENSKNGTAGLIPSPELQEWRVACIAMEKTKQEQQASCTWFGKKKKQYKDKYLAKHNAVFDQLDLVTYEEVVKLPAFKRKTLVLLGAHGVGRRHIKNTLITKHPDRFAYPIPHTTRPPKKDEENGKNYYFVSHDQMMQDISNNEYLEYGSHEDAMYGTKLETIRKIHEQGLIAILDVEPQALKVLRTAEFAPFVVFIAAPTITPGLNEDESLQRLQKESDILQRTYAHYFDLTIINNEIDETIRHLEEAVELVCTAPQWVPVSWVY
Procedure, shortened: as §1

[5] = biological target: T5, ~100 representative kinases (Homo sapiens, UniProt Q13188); details: Protein STK3; DSF; average of three replicates
T5 construct: Recombinant protein kinase domains with a concentration of 2 μM
T5 sequence (Q13188 1-491): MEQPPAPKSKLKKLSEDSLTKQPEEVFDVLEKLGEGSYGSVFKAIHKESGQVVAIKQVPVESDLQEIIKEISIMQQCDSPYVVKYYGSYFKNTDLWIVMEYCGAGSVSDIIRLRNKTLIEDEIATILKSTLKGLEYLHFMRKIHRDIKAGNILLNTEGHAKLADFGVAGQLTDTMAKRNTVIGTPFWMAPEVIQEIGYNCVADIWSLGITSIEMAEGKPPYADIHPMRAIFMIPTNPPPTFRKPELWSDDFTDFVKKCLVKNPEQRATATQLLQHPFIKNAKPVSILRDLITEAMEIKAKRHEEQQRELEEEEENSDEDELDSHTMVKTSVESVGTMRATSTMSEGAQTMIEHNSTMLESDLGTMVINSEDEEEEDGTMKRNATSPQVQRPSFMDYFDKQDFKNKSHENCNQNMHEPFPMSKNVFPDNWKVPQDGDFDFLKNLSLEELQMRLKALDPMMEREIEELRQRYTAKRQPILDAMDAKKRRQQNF
Procedure, shortened: as §1

| Compound | dTm [1] [K] | dTm [2] [K] | dTm [3] [K] | dTm [4] [K] | dTm [5] [K] |
| --- | --- | --- | --- | --- | --- |
| O=C(Nc1cccc(-c2c[nH]c3ncnc(N4CCOCC4)c23)c1)C1(C(=O)Nc2ccc(F)cc2F)CC1 [Compound 23] | 0.51 | -0.31 | 4.65 | 0.06 | 6.69 |
| Cc1cc(NC(=O)C2(C(=O)Nc3ccc(F)cc3)CC2)cc(-c2c[nH]c3ncnc(N4CCOCC4)c23)c1 [Compound 6] | 0.70 | 0.40 | 4.35 | 0.76 | 6.70 |
| O=C(Nc1cccc(-c2c[nH]c3ncnc(N4CCOCC4)c23)c1)C1(C(=O)Nc2ccc(F)c(Br)c2)CC1 [Compound 19] | 1.65 | 2.37 | 7.11 | 1.26 | 7.71 |
| Cn1cc(-c2c[nH]c3ncnc(N4CCOCC4)c23)cc1C#N [PFE-360] | 0.0159 | 0.43 | 2.70 | 0.12 | 6.99 |
| COc1cc2c(Oc3ccc(NC(=O)C4(C(=O)Nc5ccc(F)cc5)CC4)cc3F)ccnc2cc1OCCCN1CCOCC1 [Foretinib, reference compound] | 1.05 | -0.14 | 3.96 | 0.53 | 8.88 |
| Cc1ccc(C(=O)Nc2ccc(CN3CCN(C)CC3)c(C(F)(F)F)c2)cc1C#Cc1cnc2[nH]ncc2c1 [GZD-824, reference compound] | 0.0366 | 0.16 | 3.47 | -2.40 | 7.78 |
| CCNc1nc(Nc2cc(F)c(C(=O)N3CCOCC3)cc2OC)ncc1C(F)(F)F [GNE-7915] | 0.12 | 0.32 | 0.65 | 0.33 | 0.97 |
| O=C(Nc1cccc(-c2c[nH]c3ncnc(N4CCOCC4)c23)c1)C1(C(=O)Nc2cccc3c2CCC3)CC1 [Compound 11] | 0.56 | 1.27 | 3.89 | -5.15 | 4.65 |
| COc1cc(C(=O)N2CCOCC2)c(F)cc1Nc1nc(N(C)C)c2c(Cl)c[nH]c2n1 [Compound 36] | -1.69 | 0.25 | -1.24 | -0.72 | -0.64 |
| CN[C@@H]1C[C@H]2O[C@@](C)([C@@H]1OC)n1c3ccccc3c3c4c(c5c6ccccc6n2c5c31)C(=O)NC4 [Staurosporine] | – | – | – | – | 16.47 |
| COc1cc(S(C)(=O)=O)ccc1Nc1nc(N(C)C)c2c(Cl)c[nH]c2n1 [Compound 37] | -0.55 | -0.19 | 0.75 | -0.21 | -0.72 |
| O=C(Nc1cccc(-c2c[nH]c3ncnc(N4CCOCC4)c23)c1)C1(C(=O)Nc2ccc(F)c(Br)c2F)CC1 [Compound 26] | 1.02 | -0.52 | 3.94 | 1.04 | 5.86 |

Results, then the compound that gave them:

| dTm [1] [K] | dTm [2] [K] | dTm [3] [K] | dTm [4] [K] | dTm [5] [K] | Compound |
| --- | --- | --- | --- | --- | --- |
| 1.43 | 2.25 | 8.85 | 0.17 | 10.06 | Cc1cc(NC(=O)C2(C(=O)Nc3cccc(-c4c[nH]c5ncnc(N6CCOCC6)c45)c3)CC2)ccc1F [Compound 20] |
| -1.18 | -0.15 | -0.26 | -2.83 | 6.29 | CC(=O)N1CCN(c2nc(Cl)nc3[nH]cc(-c4cccc(NC(=O)Nc5cc(C(C)(C)C)nn5-c5ccc(C)cc5)c4)c23)CC1 [Compound 31] |
| 0.69 | 0.26 | 4.89 | 0.25 | 6.83 | O=C(Nc1ccccc1)C1(C(=O)Nc2cccc(-c3c[nH]c4ncnc(N5CCOCC5)c34)c2)CC1 [Compound 12] |
| -1.13 | 0.28 | -0.48 | -0.47 | 5.14 | Cc1ccc(-n2nc(C(C)(C)C)cc2NC(=O)Nc2cccc(-c3c[nH]c4nc(Cl)nc(N5CCOCC5)c34)c2)cc1 [Compound 30] |
| 1.63 | 4.48 | 5.67 | 0.70 | 10.40 | CC(C)(C)c1cc(NC(=O)Nc2cccc(-c3c[nH]c4ncnc(N5CCOCC5)c34)c2)n(-c2ccc3ncccc3c2)n1 [Compound 28] |
| 1.71 | 2.92 | 7.07 | 0.56 | 8.55 | O=C(Nc1cccc(-c2c[nH]c3ncnc(N4CCOCC4)c23)c1)C1(C(=O)Nc2ccc(F)c(Cl)c2)CC1 [Compound 18] |
| 0.91 | -0.61 | 4.90 | 0.19 | 7.94 | Cc1ccc(NC(=O)C2(C(=O)Nc3cccc(-c4c[nH]c5ncnc(N6CCOCC6)c45)c3)CC2)cc1 [Compound 14] |
| 2.20 | 1.64 | 7.72 | 0.70 | 10.20 | O=C(Nc1ccc(Cl)cc1)C1(C(=O)Nc2cccc(-c3c[nH]c4ncnc(N5CCOCC5)c34)c2)CC1 [Compound 13] |
| 0.75 | 0.36 | 4.79 | 0.30 | 7.33 | O=C(Nc1ccc(F)cc1)C1(C(=O)Nc2cccc(-c3c[nH]c4ncnc(N5CCOCC5)c34)c2)CC1 [Compound 2] |
| 0.60 | -0.48 | 2.45 | 0.15 | 5.34 | COc1ccc(NC(=O)C2(C(=O)Nc3cccc(-c4c[nH]c5ncnc(N6CCOCC6)c45)c3)CC2)cc1 [Compound 16] |
| 0.44 | -0.51 | 4.53 | -0.0179 | 6.63 | Cc1cc(F)ccc1NC(=O)C1(C(=O)Nc2cccc(-c3c[nH]c4ncnc(N5CCOCC5)c34)c2)CC1 [Compound 24] |
